Results on 21 compounds are retold here after patent US9890133B2 (priority 2011, dated 2018).

Converted amounts (≈) assume the structure as drawn.

A short description of the series: in vitro. To be noted: human.

`CC(C)c1ccc2c(c1)OC1(O)c3cccc(N)c3C(=O)C21NS(=O)(=O)C(F)(F)F` (centres unmarked) [Example 176, N-(1-Amino-4b-hydroxy-7-isopropyl-10-oxo-9b,10-dihydro-4bH-benzo[d]indeno[1,2-b]furan-9b-yl)-1,1,1-trifluoromethanesulfonamide] had a CC50 of more than 10 µg/mL. `CC(C)c1ccc2c(c1)OC1(O)c3ccccc3C(=O)C21NC=O` (centres unmarked) [Example 177, N-(4b-hydroxy-7-isopropyl-10-oxo-9b,10-dihydro-4bH-indeno[1,2-b]benzofuran-9b-yl)formamide]: the CC50 was more than 10 µg/mL.

Turning to `O=C1c2ccccc2C2(O)Oc3ccccc3C12NS(=O)(=O)C(F)(F)F` (centres unmarked) [Example 178, 1,1,1-Trifluoro-N-(4b-hydroxy-10-oxo-9b,10-dihydro-4bH-benzo[d]indeno[1,2-b]furan-9b-yl)methanesulfonamide], the CC50 is more than 10 µg/mL. `CC(C)c1ccc2c(c1)OC1(O)c3cccc(N)c3C(=O)C21NC(=O)Cc1ccc(-c2ccccc2)cc1` (centres unmarked) [Example 182, 2-([1,1′-Biphenyl]-4-yl)-N-(1-amino-4b-hydroxy-7-isopropyl-10-oxo-9b,10-dihydro-4bH-indeno[1,2-b]benzofuran-9b-yl)acetamide] gave a CC50 of 5.85 µg/mL (≈ 11.6 µM). Also, the CC50 (Picorana CC50) turned out to be 6.42 µg/mL (≈ 12.7 µM).

`CC(C)c1ccc2c(c1)OC1(O)c3ccccc3C(=O)C21NC(=O)[C@@H](C)NC(=O)OC(C)(C)C` (stereo partly drawn) [Example 184, tert-Butyl(2R)-1-(4b-hydroxy-7-isopropyl-10-oxo-9b,10-dihydro-4bH-benzo[d]indeno[1,2-b]furan-9b-ylamino)-1-oxopropan-2-ylcarbamate] yielded a CC50 of more than 10 µg/mL. The same compound yielded a CC50 (Picorana CC50) of 36.4 µg/mL (≈ 78 µM). `CC(C)c1ccc2c(c1)OC1(O)c3ccccc3C(=O)C21NC(=O)[C@@H](Cc1ccccc1)NC(=O)OC(C)(C)C` (stereo partly drawn) [Example 185, tert-Butyl(2R)-1-(4b-hydroxy-7-isopropyl-10-oxo-9b,10-dihydro-4bH-benzo[d]indeno[1,2-b]furan-9b-ylamino)-1-oxo-3-phenylpropan-2-ylcarbamate] yielded a CC50 of more than 10 µg/mL. The same compound gave a CC50 (Picorana CC50) of 7.18 µg/mL (≈ 13.2 µM). In turn, `CC(C)c1ccc2c(c1)OC1(O)c3cccc(N)c3C(=O)C21NC(=O)c1c(Cl)cc(Cl)cc1Cl` (centres unmarked) [Example 192, N-(1-Amino-4b-hydroxy-7-isopropyl-10-oxo-9b,10-dihydro-4bH-indeno[1,2-b]benzofuran-9b-yl)-2,4,6-trichlorobenzamide] registered a CC50 of more than 10 µg/mL. Take `CC(C)c1ccc2c(c1)OC1(O)c3cccc(N)c3C(=O)C21NC(=O)CCl` (centres unmarked) [Example 194, N-(1-Amino-4b-hydroxy-7-isopropyl-10-oxo-9b,10-dihydro-4bH-benzo[d]indeno[1,2-b]furan-9b-yl)-2-chloroacetamide]: the CC50 is more than 10 µg/mL. Turning to `CCCCc1cn(C23C(=O)c4c(N)cccc4C2(O)Oc2cc(C(C)C)ccc23)nn1` (centres unmarked) [Example 196, 1-amino-9b-(4-butyl-1H-1,2,3-triazol-1-yl)-4b-hydroxy-7-isopropyl-4bH-indeno[1,2-b]benzofuran-10(9bH)-one], the CC50 was determined as 16.2 µg/mL (≈ 38.7 µM). This compound also yielded a CC50 (Picorana CC50) of 48.5 µg/mL (≈ 116 µM).

`CC(C)c1ccc2c(c1)OC1(O)c3cccc(N)c3C(=O)C21NC(=O)c1cccc2cccnc12` (centres unmarked) [Example 202, N-(1-Amino-4b-hydroxy-7-isopropyl-10-oxo-9b,10-dihydro-4bH-indeno[1,2-b]benzofuran-9b-yl)quinoline-8-carboxamide] had a CC50 of 3.24 µg/mL (≈ 6.96 µM). The CC50 (Picorana CC50) came out at 9.6 µg/mL (≈ 20.6 µM).

Take `CC(C)c1ccc2c(c1)OC1(O)c3ccccc3C(=O)C21NC(=O)c1cc2ccccc2[nH]1` (centres unmarked) [Example 208, N-(4b-hydroxy-7-isopropyl-10-oxo-9b,10-dihydro-4bH-indeno[1,2-b]benzofuran-9b-yl)-1H-indole-2-carboxamide]: the CC50 was more than 10 µg/mL. Take `CC(C)c1ccc2c(c1)OC1(O)c3ccccc3C(=O)C21NC(=O)c1cnn(-c2ccccc2)c1C(F)(F)F` (centres unmarked) [Example 211]: the CC50 is more than 10 µg/mL.

In turn, `Cc1ccc(C(=O)NC23C(=O)c4c(N)cccc4C2(O)Oc2cc(C(C)C)ccc23)s1` (centres unmarked) [Example 216, N-(1-Amino-4b-hydroxy-7-isopropyl-10-oxo-9b,10-dihydro-4bH-indeno[1,2-b]benzofuran-9b-yl)-5-methylthiophene-2-carboxamide] showed a CC50 of 9.69 µg/mL (≈ 22.3 µM). The CC50 (Picorana CC50) came out at 4.75 µg/mL (≈ 10.9 µM). Compound `CC(C)c1ccc2c(c1)OC1(O)c3ccccc3C(=O)C21NC(=O)c1ccccn1` (centres unmarked) [Example 218, N-(4b-Hydroxy-7-isopropyl-10-oxo-9b,10-dihydro-4bH-indeno[1,2-b]benzofuran-9b-yl)picolinamide] displayed a CC50 of more than 10 µg/mL. Where the note is “Picorana CC50”, this compound showed a CC50 of 8.49 µg/mL (≈ 21.2 µM).

Consider `CC(C)c1ccc2c(c1)OC1(O)c3ccccc3C(=O)C21NC(=O)c1ccncn1` (centres unmarked) [Example 219, N-(4b-Hydroxy-7-isopropyl-10-oxo-9b,10-dihydro-4bH-indeno[1,2-b]benzofuran-9b-yl)pyrimidine-4-carboxamide], for which the CC50 was more than 10 µg/mL. Moreover, the CC50 (Picorana CC50) is 45.1 µg/mL (≈ 112 µM).

`CC(C)c1ccc2c(c1)OC1(O)c3ccccc3C(=O)C21NC(=O)Cc1nnn[nH]1` (centres unmarked) [Example 220, N-(4b-Hydroxy-7-isopropyl-10-oxo-9b,10-dihydro-4bH-benzo[d]indeno[1,2-b]furan-9b-yl)-2-(1H-tetrazol-5-yl)acetamide] displayed a CC50 of more than 10 µg/mL. Moreover, the CC50 (Picorana CC50) was more than 50 µg/mL. Take `CC(C)c1ccc2c(c1)OC1(O)c3ccccc3C(=O)C21NC(=O)c1nc[nH]n1` (centres unmarked) [Example 222, N-(4b-Hydroxy-7-isopropyl-10-oxo-9b,10-dihydro-4bH-benzo[d]indeno[1,2-b]furan-9b-yl)-1H-1,2,4-triazole-3-carboxamide]: the CC50 was more than 10 µg/mL. Also, the CC50 (Picorana CC50) came out at 39.4 µg/mL (≈ 101 µM). Consider `CC(C)c1ccc2c(c1)OC1(O)c3ccccc3C(=O)C21NC(=O)c1cc(=O)[nH]c(=O)[nH]1` (centres unmarked) [Example 224, N-(4b-Hydroxy-7-isopropyl-10-oxo-9b,10-dihydro-4bH-benzo[d]indeno[1,2-b]furan-9b-yl)-2,6-dioxo-1,2,3,6-tetrahydropyrimidine-4-carboxamide], for which the CC50 was more than 10 µg/mL. The same compound showed a CC50 (Picorana CC50) of more than 50 µg/mL. Regarding `CC(C)c1ccc2c(c1)OC1(O)c3ccccc3C(=O)C21NC(=O)c1cc2ccccc2oc1=O` (centres unmarked) [Example 225, N-(4b-hydroxy-7-isopropyl-10-oxo-9b,10-dihydro-4bH-benzo[d]indeno[1,2-b]furan-9b-yl)-2-oxo-2H-chromene-3-carboxamide], the CC50 was more than 10 µg/mL. The compound further registered a CC50 (Picorana CC50) of 22.9 µg/mL (≈ 48.9 µM).

Compound `CC(C)c1ccc2c(c1)OC1(O)c3ccccc3C(=O)C21NC(=O)c1ccc(=O)oc1` (centres unmarked) [Example 226, N-(4b-Hydroxy-7-isopropyl-10-oxo-9b,10-dihydro-4bH-benzo[d]indeno[1,2-b]furan-9b-yl)-2-oxo-2H-pyrane-5-carboxamide] displayed a CC50 of more than 10 µg/mL. For the setting “Picorana CC50”, this compound displayed a CC50 of 28.2 µg/mL (≈ 67.5 µM).

`CC(C)c1ccc2c(c1)OC1(O)c3ccccc3C(=O)C21NC(=O)c1nc2ccccc2[nH]1` (centres unmarked) [Example 227, N-(4b-hydroxy-7-isopropyl-10-oxo-9b,10-dihydro-4bH-benzo[d]indeno[1,2-b]furan-9b-yl)-1H-benzo[d]imidazole-2-carboxamide]: the CC50 is more than 10 µg/mL. Further, under “Picorana CC50”, the CC50 is 9.62 µg/mL (≈ 21.9 µM).
